Measured values taken from US20230012570A1, “BICYCLIC COMPOUND USED AS SELECTIVE ANDROGEN RECEPTOR MODULATOR” (MEDSHINE DISCOVERY INC., priority 2019, published 2023).

Columns and labels:
Assay type in all cases: in vitro ADME
CYP2D6 = biological target: T1, CYP2D6 (Homo sapiens, UniProt P10635); assay: Human liver microsomal CYP inhibition experiment, CYP2D6
T1 construct: Mixed human liver microsomes (HLM) were purchased from Corning Inc; tissue Corning Inc. or XenoTech, LLC. or other suppliers; host or cells: pooled human liver microsomes
Procedure: (§1) Experiment Embodiment 4: Human Liver Microsomal CYP Inhibition Experiment
(§2) The inhibitory effects of the test compound 3A and VK5211 on the activities of human liver microsomal cytochrome P450 isozymes (CYP1A2, CYP2C9, CYP2C19, CYP2D6 and CYP3A4) were determined.
(§3) Mixed human liver microsomes (HLM) were purchased from Corning Inc. (Steuben, New York, USA) or XenoTech, LLC. (Lenexa, Kans., USA) or other suppliers, and were stored at a temperature below −60° C. before use.
(§4) First, the test compound (10.0 mM) was gradient diluted to prepare working solution (100×final concentration), and the concentrations of the working solution were: 5.00, 1.50, 0.500, 0.150, 0.0500, 0.0150, 0.00500 mM, and a working solution of each positive inhibitor of P450 isozymes (CYP1A2, CYP2C9, CYP2C19, CYP2D6, and CYP3A4) and a specific substrate mixture thereof (5 in 1) were prepared at the same time; human liver microsomes stored in a refrigerator at a temperature lower than −60° C. were put on ice to thaw, and when all the human liver microsomes were dissolved, the microsomes were diluted with potassium phosphate buffer (PB) to prepare a working solution of a certain concentration (0.253 mg/mL). […] The concentration of metabolites produced by the probe substrate in the sample was determined by liquid chromatography-tandem mass spectrometry (LC-MS/MS) method. […]

CYP2C19 = biological target: T2, CYP2C19 (Homo sapiens, UniProt P33261); assay: Human liver microsomal CYP inhibition experiment, CYP2C19
T2 construct: Mixed human liver microsomes (HLM) were purchased from Corning Inc; tissue Corning Inc. or XenoTech, LLC. or other suppliers; host or cells: pooled human liver microsomes
Procedure: as §1, §2, §3, §4

CYP1A2 = biological target: T3, CYP1A2 (Homo sapiens, UniProt P05177); assay: Human liver microsomal CYP inhibition experiment, CYP1A2
T3 construct: Mixed human liver microsomes (HLM) were purchased from Corning Inc; tissue Corning Inc. or XenoTech, LLC. or other suppliers; host or cells: pooled human liver microsomes
T3 sequence (P05177 1-516): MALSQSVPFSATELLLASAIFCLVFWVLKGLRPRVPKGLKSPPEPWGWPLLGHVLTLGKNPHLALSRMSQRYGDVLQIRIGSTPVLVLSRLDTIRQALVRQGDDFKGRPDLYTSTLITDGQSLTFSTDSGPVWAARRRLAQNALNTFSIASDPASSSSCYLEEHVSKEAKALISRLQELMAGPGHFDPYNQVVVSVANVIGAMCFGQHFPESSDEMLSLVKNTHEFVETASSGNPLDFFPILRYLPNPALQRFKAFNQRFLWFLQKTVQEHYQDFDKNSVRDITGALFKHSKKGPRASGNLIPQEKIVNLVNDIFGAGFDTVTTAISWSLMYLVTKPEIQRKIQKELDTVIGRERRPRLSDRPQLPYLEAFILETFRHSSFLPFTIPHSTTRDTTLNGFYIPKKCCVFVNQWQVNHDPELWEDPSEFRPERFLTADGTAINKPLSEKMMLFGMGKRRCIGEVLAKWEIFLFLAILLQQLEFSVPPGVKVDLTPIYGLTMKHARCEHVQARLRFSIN
Procedure: as §1, §2, §3, §4

CYP3A4 = biological target: T4, CYP3A4 (Homo sapiens, UniProt P08684); assay: Human liver microsomal CYP inhibition experiment, CYP3A4
T4 construct: Mixed human liver microsomes (HLM) were purchased from Corning Inc; tissue Corning Inc. or XenoTech, LLC. or other suppliers; host or cells: pooled human liver microsomes
Procedure: as §1, §2, §3, §4

T1 sequence (P10635 whole entry): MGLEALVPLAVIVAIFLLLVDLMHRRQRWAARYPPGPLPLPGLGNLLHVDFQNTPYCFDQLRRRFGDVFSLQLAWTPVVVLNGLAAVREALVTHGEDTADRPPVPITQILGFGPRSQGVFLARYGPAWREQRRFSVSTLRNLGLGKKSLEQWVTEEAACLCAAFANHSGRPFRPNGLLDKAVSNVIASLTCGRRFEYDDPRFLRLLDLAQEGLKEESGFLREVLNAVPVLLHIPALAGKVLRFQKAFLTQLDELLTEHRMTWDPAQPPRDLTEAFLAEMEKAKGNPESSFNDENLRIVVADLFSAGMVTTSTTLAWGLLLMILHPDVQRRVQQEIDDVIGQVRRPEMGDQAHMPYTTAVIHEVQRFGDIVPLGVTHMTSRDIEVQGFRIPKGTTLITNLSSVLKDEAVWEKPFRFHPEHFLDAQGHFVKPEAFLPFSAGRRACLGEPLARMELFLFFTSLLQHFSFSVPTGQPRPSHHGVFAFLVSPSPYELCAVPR
T2 sequence (P33261 whole entry): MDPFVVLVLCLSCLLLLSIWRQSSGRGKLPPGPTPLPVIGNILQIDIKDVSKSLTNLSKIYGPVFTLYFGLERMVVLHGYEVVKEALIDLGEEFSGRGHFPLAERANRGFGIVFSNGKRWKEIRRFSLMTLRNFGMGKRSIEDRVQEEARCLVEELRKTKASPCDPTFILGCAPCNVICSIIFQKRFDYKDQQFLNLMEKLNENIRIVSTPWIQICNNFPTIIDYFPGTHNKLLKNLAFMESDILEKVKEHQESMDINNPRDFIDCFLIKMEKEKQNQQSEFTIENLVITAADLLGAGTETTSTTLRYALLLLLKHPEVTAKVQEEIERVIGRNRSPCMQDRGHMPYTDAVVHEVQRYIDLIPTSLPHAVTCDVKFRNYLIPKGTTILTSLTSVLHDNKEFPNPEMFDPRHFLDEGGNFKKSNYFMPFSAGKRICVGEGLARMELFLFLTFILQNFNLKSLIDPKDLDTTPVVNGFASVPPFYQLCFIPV
T4 sequence (P08684 whole entry): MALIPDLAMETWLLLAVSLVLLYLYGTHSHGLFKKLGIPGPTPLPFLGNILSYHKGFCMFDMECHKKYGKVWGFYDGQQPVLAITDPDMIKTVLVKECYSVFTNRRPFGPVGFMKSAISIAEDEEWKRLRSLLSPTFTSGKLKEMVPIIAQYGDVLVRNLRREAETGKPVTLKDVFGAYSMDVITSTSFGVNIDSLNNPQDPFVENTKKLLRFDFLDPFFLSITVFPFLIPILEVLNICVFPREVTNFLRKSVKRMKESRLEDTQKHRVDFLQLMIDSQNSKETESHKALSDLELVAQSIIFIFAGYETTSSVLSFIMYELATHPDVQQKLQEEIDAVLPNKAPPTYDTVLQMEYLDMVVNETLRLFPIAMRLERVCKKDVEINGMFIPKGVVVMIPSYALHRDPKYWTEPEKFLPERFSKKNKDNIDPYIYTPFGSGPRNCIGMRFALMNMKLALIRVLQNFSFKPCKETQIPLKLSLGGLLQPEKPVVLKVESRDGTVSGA

## N#Cc1ccc(N2CC3CC3C2C(O)C(F)(F)F)cc1Cl (single isomer, unassigned) [Compound 3A]
CYP2D6
  IC50: > 50 µM
CYP2C19
  IC50: 12.1 µM
CYP1A2
  IC50: 29.3 µM
CYP3A4
  IC50: > 50 µM
